Melting point data for six compounds are collected here from US20040048838A1, “Meiosis regulating compounds” (priority 1995, published 2004).

For orientation: melting point means the temperature of the solid-liquid transition.

`CC(C)CCC[C@@H](C)[C@H]1CC=C2C3=C(CC[C@@]21C)[C@@]1(C)CC=CCC1CC3` (stereo partly drawn) returned a melting point of 104.7 °C.

`C[C@H](CCC(=O)N(C)C)[C@H]1CC=C2C3=C(CC[C@@]21C)[C@@]1(C)CC[C@H](O)C(C)(C)[C@@H]1CC3` registered a melting point of 192 to 195 °C.

The compound `C[C@@H](CO)CCC[C@@H](C)[C@H]1CC=C2C3=C(CC[C@@]21C)[C@@]1(C)CC[C@H](O)C(C)(C)[C@@H]1CC3` showed a melting point of 180 to 181 °C.

Compound `C[C@@H](CCl)CCC[C@@H](C)[C@H]1CC=C2C3=C(CC[C@@]21C)[C@@]1(C)CC[C@H](O)C(C)(C)[C@@H]1CC3` gave a melting point of 145 to 145.5 °C.

As to `C[C@@H](CI)CCC[C@@H](C)[C@H]1CC=C2C3=C(CC[C@@]21C)[C@@]1(C)CC[C@H](O)C(C)(C)[C@@H]1CC3`, the melting point was found to be 148 °C.

`CC(C)CCC[C@@H](C)[C@H]1[C@@H](O)C[C@H]2C3=CC=C4C(C)(C)[C@@H](O)CC[C@]4(C)[C@H]3CC[C@]12C` showed a melting point of 171 to 173 °C.
